Source: article PMC8165439, “Chymase Dependent Pathway of Angiotensin II Generation and Rapeseed Derived Peptides for Antihypertensive Treatment of Spontaneously Hypertensive Rats” (Frontiers in Pharmacology, 2021)
Entries after “also recorded” stand apart in the source; their conditions may differ.

Columns and labels:
[1] = tested on: spontaneously hypertensive rats (SHR); assay: Chronic iv treatment, systolic blood pressure by telemetry; type: in vivo, rat
Source text: Implantation of the telemetry transmitters for BP measurement: Seven days before the start of the chronic experiment all rats were implanted with telemetry probes for blood pressure monitoring (Data Science International, St. Paul, MN, United States). The transmitters (TA11PA-C10 dedicated for young animals or TA11PA-C40 for adult rats, Data Science International, St. Paul, MN, United States), were implanted under aseptic conditions, under sodium pentobarbital anesthesia (Sodium Pentobarbital, dose: 50 mg/kg ip, Biowet, Pulawy, Poland). The transmitter’s cannula was implanted into the aorta and transmitter’s body was placed inside the peritoneal cavity and fixed to the abdominal muscle wall. Metacam (0.4 mg/kg BW, Boehringer, Ingelheim, Germany) and Baytril (10 mg/kg BW, Bayer, Leverkusen, Germany) were used as post-operative analgesia and to prevent infection, respectively.
Implantation of cannulas for intravenous administration of selected substances: Four days before the start of the chronic experiment, the femoral vein was cannulated for chronic administration of the substances (Micro-Renathane MRE033, BIOSEB-In Vivo Research Instruments, United States/Canada), and the femoral artery was cannulated for blood sampling (Micro-Renathane Tubing MRE-025 and MRE033, BIOSEB-In Vivo Research Instruments, United States/Canada, respectively in young and adult rats). Both cannulas were filled with 4% Citra-Lock solution (Dirinco B.V, Ketelmeer 1, 5347 JX Oss, Netherlands) to prevent blood clotting and inflammation. After the surgery the post-operative treatment was applied as that for telemetric probe implantation.
Systolic and diastolic blood pressure (SBP and DBP, respectively) and heart rate (HR) were measured in conscious unrestrained rats by telemetry technique, once a week for 24 h. […] The diuresis, weight of feces, food and water intake were measured; urine and blood samples were collected on day 0, 7th and 14th, and were centrifuged at 1200 g (blood for 15 min and urine for 5 min), then the samples were stored at –80°C until analysis. […]

[2] = tested on: spontaneously hypertensive rats (SHR); assay: Chronic iv treatment, urinary albumin excretion (UAE); type: in vivo, rat; settings: mean ± SEM, n = 5
Procedure: (§1) Systolic and diastolic blood pressure (SBP and DBP, respectively) and heart rate (HR) were measured in conscious unrestrained rats by telemetry technique, once a week for 24 h. 24 hour observations in metabolic cages (Tecniplast S. p.A. Buguggiate, Italy) were performed weekly. The diuresis, weight of feces, food and water intake were measured; urine and blood samples were collected on day 0, 7th and 14th, and were centrifuged at 1200 g (blood for 15 min and urine for 5 min), then the samples were stored at –80°C until analysis.
(§2) On day 0 all animals received saline (0.9% NaCl) and then, for 14 consecutive days, the substance tested. Chymostatin (CH, 2 mg/kg/day) was dissolved in DMSO and then diluted with PBS (final concentration of DMSO was 0.15%). Peptides RIY (7.5 mg/kg/day) and VWIS (12.5 mg/kg/day) were dissolved in saline (0.9% NaCl, S). The substances were administered through the femoral vein during 10 min in the volume of 0.5 ml to young SHR (infusion rate: 3 ml/h) and 1 ml to adult rats (infusion rate: 6 ml/h). Control rats received solvents (either DMSO or saline) in the same volume.
(§3) Urine volume was determined by gravimetric method. Sodium and potassium concentration in urine and plasma were measured by flame photometry (PFP7/C, Jenway Ltd, Stone, United Kingdom). Urine and plasma osmolality were measured by freezing point depression (Osmomat® 030 M, Gonotec, Berlin, Germany). These parameters were used to determine the excretion rates of total solutes (UosmV), sodium (UNaV) and potassium (UKV). Commercially available ELISA kits were used to measure nitric oxide metabolites (NOx, SunRed, Shanghai) and albumin (Albumin, ICL, Portland) concentration in urine. Excretion rate of NOx (UNOxV) and albumin (UAE) were calculated.

[3] = tested on: spontaneously hypertensive rats (SHR); assay: Metabolic parameters in metabolic cages during chronic treatment; type: in vivo, rat; settings: mean ± SEM
Procedure: as §1, §2, §3

ACE = settings: ref Petrie et al., 2001; cited from earlier work
[4] = tested on: spontaneously hypertensive rats (SHR); assay: Glomerulosclerosis index (GSI) after chronic treatment; type: in vivo, rat; settings: after 14 days daily iv CH 2, RIY 7.5, VWIS 12.5 mg/kg/day, mean ± SEM, n = 5
Procedure: After the chronic experiment rats were anesthetized with sodium thiopental (100 mg/kg, ip, Sandoz GmbH, Kundl, Austria) and the heart, kidney and tibia were harvested for morphologic analysis. Additionally, left ventricular hypertrophy was assessed: the hearts were immediately harvested, dried with filter paper, and weighed. Then the left ventricle (LV) was carefully excised and weighed again. Left ventricular hypertrophy was assessed based on the ratio of LV mass to tibia length (LV/tibia).
The kidneys were fixed in 4% buffered formalin, embedded in paraffin and stained with hematoxylin/eosin for morphology evaluation. Glomerulosclerosis/hyalinosis index (GSI) was defined as segmental solidification of the glomerular capillary tuft, segmental collapse, obliteration of capillary lumen and accumulation of hyaline. Fifty glomeruli per section were randomly selected and evaluated using semi-quantitative scoring method as described in detail previously ([Maric et al., 2004]; [Gawrys et al., 2018]). Blind group allocation of the investigators was used.

[5] = adult SHR (SHR-16), day 0 (baseline)
[6] = adult SHR (SHR-16), day 7 of daily iv treatment
[7] = adult SHR (SHR-16), day 14 of daily iv treatment
[8] = young SHR (SHR-6), day 0 (baseline)
[9] = young SHR (SHR-6), day 7 of daily iv treatment
[10] = young SHR (SHR-6), day 14 of daily iv treatment

## CC(C)C[C@H](NC(=O)[C@@H](NC(=O)N[C@@H](Cc1ccccc1)C(=O)O)[C@@H]1CCN=C(N)N1)C(=O)N[C@H](C=O)Cc1ccccc1 [CH, chymostatin]
[1]; adult SHR (16 weeks old), daily iv for 14 days, CH 2, RIY 7.5, VWIS 12.5 mg/kg/day
  effect on systolic blood pressure (SBP) in adult SHR: no sustained decrease in arterial blood pressure; also recorded: significant increase in SBP
[1]; adult SHR, chronic intravenous infusion of chymostatin 2 mg/kg/day
  period of transient BP reduction post-infusion: ≤ 7 h
[1]; young SHR (6 weeks old), daily iv for 14 days, CH 2, RIY 7.5, VWIS 12.5 mg/kg/day
  effect on blood pressure (SBP) in young animals: Neither of the inhibitors applied (chymostatin and the both rapeseed-derived peptides) affected blood pressure
[2]; adult SHR, day 0 (baseline, saline)
  Urinary albumin excretion (UAE): 0.59 ± 0.33 mg/24h
[2]; adult SHR, day 7 of daily iv CH 2, RIY 7.5, VWIS 12.5 mg/kg/day
  Urinary albumin excretion (UAE): 0.41 ± 0.04 mg/24h
[2]; adult SHR, day 14 of daily iv CH 2, RIY 7.5, VWIS 12.5 mg/kg/day
  Urinary albumin excretion (UAE): 0.84 ± 0.32 mg/24h
[2]; young SHR, day 0 (baseline, saline)
  Urinary albumin excretion (UAE): 0.03 ± 0.01 mg/24h
[2]; young SHR, day 7 of daily iv CH 2, RIY 7.5, VWIS 12.5 mg/kg/day
  Urinary albumin excretion (UAE): 0.07 ± 0.01 mg/24h
[2]; young SHR, day 14 of daily iv CH 2, RIY 7.5, VWIS 12.5 mg/kg/day
  Urinary albumin excretion (UAE): 0.13 ± 0.03 mg/24h
[3]; adult SHR (SHR-16), day 0 (baseline), CH n=8, RIY n=5-6, VWIS n=5-6
  Body weight: 271 ± 16 g
[3]; [5]
  Diuresis: 6.9 ± 1.9 µL/min
  Faeces: 9±1 g/24 h
  Food intake: 21±1 g/24 h
  Water intake: 29±3 g/24 h
[3]; adult SHR (SHR-16), day 7 of daily iv CH 2, RIY 7.5, VWIS 12.5 mg/kg/day
  Body weight: 285 ± 17 g
[3]; [6]
  Diuresis: 7.4 ± 2.1 µL/min
  Faeces: 8±1 g/24 h
  Food intake: 17±1 g/24 h
  Water intake: 29±3 g/24 h
[3]; adult SHR (SHR-16), day 14 of daily iv CH 2, RIY 7.5, VWIS 12.5 mg/kg/day
  Body weight: 298 ± 19 g
[3]; [7]
  Diuresis: 8.1 ± 2.9 µL/min
  Faeces: 9±1 g/24 h
  Food intake: 20±2 g/24 h
  Water intake: 29±4 g/24 h
[3]; young SHR (SHR-6), day 0 (baseline), CH n=8-10, RIY n=5, VWIS n=5-6
  Body weight: 131 ± 10 g
[3]; [8]
  Diuresis: 6.1 ± 0.5 µL/min
  Faeces: 7±1 g/24 h
  Food intake: 15±1 g/24 h
  Water intake: 23±2 g/24 h
[3]; young SHR (SHR-6), day 7 of daily iv CH 2, RIY 7.5, VWIS 12.5 mg/kg/day
  Body weight: 159 ± 5 g
[3]; [9]
  Diuresis: 9.9 ± 1.4 µL/min
  Faeces: 11±1 g/24 h
  Food intake: 18±2 g/24 h
  Water intake: 29±5 g/24 h
[3]; young SHR (SHR-6), day 14 of daily iv CH 2, RIY 7.5, VWIS 12.5 mg/kg/day
  Body weight: 196 ± 4 g
[3]; [10]
  Diuresis: 10.0 ± 0.9 µL/min
  Faeces: 12±1 g/24 h
  Food intake: 20±2 g/24 h
  Water intake: 32±3 g/24 h
ACE
  block of ACE by chymostatin: does not block ACE
[4]; adult SHR
  glomerulosclerosis index (GSI): 0.50 ± 0.07
[4]; young SHR
  glomerulosclerosis index (GSI): 0.51 ± 0.07
